Experimental data from paper PMC6197257 (Scientific Reports, 2018).

Key:
[1] = pharmacokinetics in EHBRs orally treated with GA (200 mg/kg), LC-MS/MS; type: in vivo, Eisai Hyperbilirubinemia rats (EHBRs)
Description: Female SD rats or EHBRs (9-week-old) were anesthetized by an intraperitoneal (i.p.) injection of urethane (1 g/kg) and their jugular veins were exposed. […] Aliquots (10 µl) of plasma or urine were mixed with 20 µl of subtilisin (0.91 U/ml), incubated at 37 °C for 30 min, followed by the addition of 70 µl of astragalloside IV solution (1 µg/ml in ethanol containing 0.5% formic acid), and kept at −20 °C for 30 min.

[2] = concentrations in pooled plasma of EHBRs 12 h after oral GA (200 mg/kg); type: in vivo; settings: Eisai Hyperbilirubinemia rats (EHBR), rat
Description: Three female and three male EHBRs (9-week-old, respectively) were injected with urethane (1 g/kg, i.p.), and orally treated with an aqueous GA aqueous suspension (200 mg/kg in 1% CMC). Twelve h after the treatment, blood was collected from the abdominal vena cava, and the plasma samples of each sex rat were pooled.
LC-ESI(+)MS/MS analysis was conducted at the following conditions: column, Scherzo SM-C18 (3 μm, 3 mm i.d. ×100 mm, Imtakt, Kyoto, Japan); mobile phase, (A) 5 mM AcNH4, (B) 125 mM AcNH4/acetonitrole 1:4, at a flow rate of 0.3 ml/min, with the following gradient profile: A:B = 50:50–0:100 (0–3 min) and 0:100 (3–10 min); compound 1 (5.8 min), astragaloside IV (3.0 min), GA (8.7 min); the transitions monitored were the same as described in the previous section. Linear regressions over the concentration range 0.08–2 µM for compound 1 and 3.2 nM–2 µM for GA were examined using the peak-area ratio of the compounds to their internal standards and the least-squares method (r^2 > 0.98).

OAT1 = target: T1, OAT1 (Homo sapiens, UniProt Q4U2R8); experiment: uptake by MDCK II cells stably expressing OAT1; type: in vitro ADME; settings: pooled plasma of male EHBRs (79 µM compound 1), pH 5.5, 37 °C, 15 min
T1 construct: expressed in transfected cells
T1 sequence (Q4U2R8 1-563): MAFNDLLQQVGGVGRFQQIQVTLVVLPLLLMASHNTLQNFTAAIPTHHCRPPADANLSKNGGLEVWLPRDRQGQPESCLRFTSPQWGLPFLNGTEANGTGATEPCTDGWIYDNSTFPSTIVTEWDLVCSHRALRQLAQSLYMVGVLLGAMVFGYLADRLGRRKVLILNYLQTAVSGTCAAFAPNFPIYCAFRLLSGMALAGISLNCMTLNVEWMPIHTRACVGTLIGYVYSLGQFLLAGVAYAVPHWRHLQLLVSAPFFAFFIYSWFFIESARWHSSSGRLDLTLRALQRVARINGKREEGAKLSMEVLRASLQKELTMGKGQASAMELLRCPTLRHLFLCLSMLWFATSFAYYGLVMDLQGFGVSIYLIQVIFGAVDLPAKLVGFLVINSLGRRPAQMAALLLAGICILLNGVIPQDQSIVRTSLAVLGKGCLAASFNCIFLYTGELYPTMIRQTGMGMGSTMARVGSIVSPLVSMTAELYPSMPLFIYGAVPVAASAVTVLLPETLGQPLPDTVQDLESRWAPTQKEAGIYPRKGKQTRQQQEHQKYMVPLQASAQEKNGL
Description: (§1) MDCKII cells were cultured in Dulbecco’s modified Eagle’s medium containing 10% FBS, 100 U/ml penicillin, and 100 µg/ml streptomycin at 37 °C in 5% CO2. Plasmids carrying the cDNAs encoding human organic anion transporter (OAT) 1 and 3 were prepared using the pCI-neo mammalian expression vector, as described previously. Using the plasmids, MDCKII cells stably expressing OAT1 and 3 were prepared as described previously, and tested for their functional expressions by evaluating the transports of [^3H]p-aminohippurate and [^3H]estrone sulfate, respectively, as probe substrates.
(§2) For the transport assay, the cells were seeded in 24-well plates (1 × 10^5 cells/well), and incubated for 24 h. The cells were pre-incubated for 15 min at 37 °C with 0.25 ml of the incubation medium described above. Two ml of pooled female or male EHBR plasma samples was lyophilized, and dissolved in 2 ml of 10 mM MES (pH 5.5). The cells were then incubated further at 37 °C for 15 min with 0.1 ml of pooled female or male EHBR plasma samples. The surface of the cells was washed 3 times with 0.5 ml of ice-cold PBS, and then the contents were extracted with 0.2 ml of ethanol. The cell residues were dissolved by 0.1 ml of 1 M NaOH, and after neutralization by adding 0.1 ml of 1 M HCl, the concentrations of protein were measured as mentioned above.

OAT3 = target: T2, OAT3 (Homo sapiens, UniProt Q8TCC7); experiment: uptake by MDCK II cells stably expressing OAT3; type: in vitro ADME; settings: pooled plasma of male EHBRs (79 µM compound 1), pH 5.5, 37 °C, 15 min
T2 construct: expressed in transfected cells
T2 sequence (Q8TCC7 1-542): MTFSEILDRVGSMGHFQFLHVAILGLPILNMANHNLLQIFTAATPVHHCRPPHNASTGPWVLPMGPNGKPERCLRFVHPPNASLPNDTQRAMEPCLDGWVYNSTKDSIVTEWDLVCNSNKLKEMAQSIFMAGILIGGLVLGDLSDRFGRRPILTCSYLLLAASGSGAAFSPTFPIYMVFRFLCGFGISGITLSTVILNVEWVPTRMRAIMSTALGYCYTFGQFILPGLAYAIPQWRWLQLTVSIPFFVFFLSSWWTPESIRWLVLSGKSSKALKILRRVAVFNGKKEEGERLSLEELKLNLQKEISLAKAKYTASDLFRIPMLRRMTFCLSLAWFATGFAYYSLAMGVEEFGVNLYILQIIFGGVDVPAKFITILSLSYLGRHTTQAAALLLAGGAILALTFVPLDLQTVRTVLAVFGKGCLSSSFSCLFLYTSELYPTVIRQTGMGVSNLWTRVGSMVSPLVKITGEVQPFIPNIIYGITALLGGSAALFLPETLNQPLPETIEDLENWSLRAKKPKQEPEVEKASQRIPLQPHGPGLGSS
Description: as §1, §2

- plasma concentration, times higher than that of 3MGA ([1]; EHBRs orally treated with GA): about 10 times
- concentration at 12 h ([1]; Eisai Hyperbilirubinemia rats (EHBR), rat, plasma, female EHBRs, GA 200 mg/kg oral, 12 h, read-out: plasma concentration 12 h after GA treatment): 5.3 µM
- urinary elimination in EHBRs ([1]; female EHBRs, GA 200 mg/kg oral, over 12 h): eliminated via urine
- concentration at 12 h ([2]; female, read-out: concentration in pooled plasma, female EHBRs): 15 µM
- concentration at 12 h ([2]; male, read-out: concentration in pooled plasma, male EHBRs): 79 µM
- uptake by cells expressing OAT1 compared with mock cells (OAT1): higher than that by mock cells
- uptake by cells expressing OAT3 compared with mock cells (OAT3): higher than that by mock cells
Compound: CC1(C(=O)OC2OC(C(=O)O)C(O)C(O)C2O)CC(O)C2(C)CCC3(C)C(=CC(=O)C4C5(C)CCC(OS(=O)(=O)O)C(C)(C)C5CCC43C)C2C1 (stereo not drawn) [Compound 1, 22α-hydroxy-18β-glycyrrhetyl-3-O-sulfate-30-glucuronide]
